{"source": "patent US20260042734A1", "about": "“HETEROCYCLIC RING-SUBSTITUTED AROMATIC COMPOUND, PREPARATION METHOD THEREFOR, AND USE THEREOF” (SHANGHAI HENLIUS BIOTECH, INC., priority 2023, published 2026)"}
{"molecular_target": "human Kv1.3 (hKv1.3) channels (Homo sapiens (Human), UniProt P22001)", "sequence (P22001 whole entry)": "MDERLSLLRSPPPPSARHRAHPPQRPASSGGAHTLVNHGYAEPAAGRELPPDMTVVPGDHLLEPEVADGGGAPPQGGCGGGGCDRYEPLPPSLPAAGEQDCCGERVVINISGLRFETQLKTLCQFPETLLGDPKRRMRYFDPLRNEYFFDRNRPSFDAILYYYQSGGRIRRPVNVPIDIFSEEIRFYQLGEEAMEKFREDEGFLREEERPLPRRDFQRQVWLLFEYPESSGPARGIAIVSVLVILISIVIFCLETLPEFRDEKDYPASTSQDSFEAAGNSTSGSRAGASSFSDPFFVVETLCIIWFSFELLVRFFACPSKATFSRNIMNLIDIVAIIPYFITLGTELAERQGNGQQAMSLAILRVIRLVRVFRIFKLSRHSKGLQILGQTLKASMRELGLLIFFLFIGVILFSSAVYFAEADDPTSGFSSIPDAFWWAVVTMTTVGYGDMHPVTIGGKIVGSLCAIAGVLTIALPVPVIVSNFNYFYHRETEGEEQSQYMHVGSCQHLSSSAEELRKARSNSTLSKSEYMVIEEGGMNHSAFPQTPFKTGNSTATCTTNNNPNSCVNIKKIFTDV", "experiment": "Electrophysiological (whole-cell patch clamp) determination of inhibitory activity on Kv1.3 channels", "format": "cell-based", "details": "HEK293T cells expressing hKv1.3; Hill fit of peak current inhibition", "procedure": "(§1) Test Example 1: Determination of Inhibitory Activity of Compounds on Kv1.3 (hKv1.3) Channels\n(§2) Electrophysiological Testing\n(§3) Potassium currents were measured using HEK293T cells expressing human Kv1.3 (hKv1.3) channels.\n(§4) Prior to the start of electrophysiological experiments, Kv1.3 cell lines should be maintained within 70% of the maximum density in the logarithmic growth phase. All reagents should be pre-warmed to 37° C. before use. • 1) Aspirate the spent medium from the 6 cm culture dish. • 2) Add 1 mL of PBS, gently rock the dish to rinse the bottom, and then remove the PBS. • 3) Add 1 mL of trypsin, and gently rock the dish to ensure the trypsin covers all the cells. • 4) Incubate at 37° C. for 2-3 minutes, and then gently pipette the cells to suspend the adherent cells. • 5) Transfer the cell suspension to a new centrifuge tube and centrifuge at 1000 rpm for 5 minutes. Adjust the cell concentration to 2×10^3 cells/mL, and then seed 300 μL of the cell suspension into each well of a 24-well plate containing cell climbing slides. Perform patch clamp experiments after the cells adhered properly.\n(§5) The intracellular and extracellular solutions used were designed to mimic the cell physiological ionic composition.\n(§6) Kv1.3 extracellular solution: 137 mM NaCl, 1 mM MgCl2·6H2O, 4 mM KCl, 1.8 mM CaCl2·2H2O, 10 mM D-Glucose, 10 mM HEPES, pH adjusted to 7.4 with NaOH.\n(§7) Kv1.3 intracellular solution: 140 mM KCl, 10 mM EGTA, 5 mM MgCl2·6H2O, 10 mM HEPES, […], pH adjusted to 7.2 with KOH.\n(§8) Test Compound Dissolution\n(§9) • 1) The test compound was dissolved in DMSO to prepare a 30 mM stock solution. • 2) The stock solution of the test compound was serially diluted with DMSO to obtain secondary stock solutions at concentrations of 300 μM, 100 μM, 30 μM, 10 μM, and 3 μM. • 3) 10 μL of each secondary stock solution was diluted into 10 mL of extracellular solution to achieve final concentrations of 300 nM, 100 nM, 30 nM, 10 nM, and 3 nM for electrophysiological testing.\n(§10) Kv1.3 potassium current data were collected and stored on a computer using Patchmaster software via an EPC-10 amplifier. • 1) The cell climbing slide was removed from the cell culture dish using forceps, immersed with extracellular solution, and placed into the bath chamber on the stage of an inverted microscope. • 2) Glass micropipettes were pulled using a P-1000 micropipette puller, filled one-third of their volume with intracellular solution, and then mounted onto an electrode holder. • 3) Using a motorized micromanipulator (Scientifica-Double 1U), the recording electrode was brought into contact with the cell surface. […] The positive pressure was removed, and a negative pressure of 0.5 cm H2O was applied. It was observed that the sealing resistance increased rapidly until it reached the gigaseal. When the sealing resistance between the recording electrode and the cell membrane was >1 GΩ, negative pressure was applied to rupture the membrane to form the whole-cell recording mode. After the ruptured membrane stabilized, the membrane capacitance (Cs) and series resistance (Rs) were compensated. • 4) Stimulation procedure: the cell was voltage-clamped at −80 mV, depolarized to 40 mV for a duration of 200 ms, and then repolarized to −80 mV. Currents were recorded every 10 s. • 5) Kv1.3 potassium channel currents were recorded at room temperature prior to drug application. After the control current value reached a steady state (indicated by overlapping of the four most consecutive current traces), cumulative drug application was performed. The negative control (0.1% DMSO) was applied first, followed by […] of the drugs.\n(§11) Raw Kv1.3 current peak data were extracted from PatchMaster software. The current inhibition rate was calculated as follows: Peak current inhibition rate=((1−(Peak current compound)/(Peak current vehicle))). […]", "units": {"IC50": "nM"}}
{"molecule": "OC[C@@H](O)CN1CC(c2c(O)ccc(Cl)c2Cl)CC1=S", "note": "(mixture of isomers) [Compound 131, rac-4-(2,3-dichloro-6-hydroxyphenyl)-1-((S)-2,3-dihydroxypropyl)pyrrolidine-2-thione]", "IC50": "30 to 100"}
{"molecular_target": "human Kv1.3 (hKv1.3) channels (Homo sapiens (Human), UniProt P22001)", "experiment": "Electrophysiological (whole-cell patch clamp) determination of inhibitory activity on Kv1.3 channels", "format": "cell-based", "details": "HEK-293T; compound concentration 10 nM; HEK293T cells expressing hKv1.3; peak current inhibition; read-out: 10 nM inhibition rate (Kv1.3)", "procedure": "as §1, §2, §3, §4, §5, §6, §7, §8, §9, §10, §11", "units": {"inhibition at 0.01 µM": "%"}}
{"molecule": "OCCCN1CC(c2c(O)ccc(Cl)c2Cl)CC1=S", "note": "(racemic) [Compound 1, rac-4-(2,3-Dichloro-6-hydroxyphenyl)-1-(3-hydroxypropyl)pyrrolidine-2-thione]", "inhibition at 0.01 µM": "25 to 50"}
{"molecule": "NCCCN1CC(c2c(O)ccc(Cl)c2Cl)CC1=S", "note": "(racemic) [Compound 2, rac-1-(3-Aminopropyl)-4-(2,3-dichloro-6-hydroxyphenyl)pyrrolidine-2-thione]", "inhibition at 0.01 µM": "50 to 75"}
{"molecule": "ONCCCN1CC(c2c(O)ccc(Cl)c2Cl)CC1=S", "note": "(racemic) [Compound 26, rac-4-(2,3-Dichloro-6-hydroxyphenyl)-1-(3-(hydroxyamino)propyl)pyrrolidine-2-thione]", "inhibition at 0.01 µM": "0 to 5"}
{"molecule": "Oc1ccc(Cl)c(Cl)c1C1CC(=S)N(C2CC3(CNC3)C2)C1", "note": "(racemic) [Compound 34, rac-4-(2,3-Dichloro-6-hydroxyphenyl)-1-(2-azaspiro[3.3]heptan-6-yl)pyrrolidine-2-thione]", "inhibition at 0.01 µM": "25 to 50"}
{"molecule": "Oc1ccc(Cl)c(Cl)c1C1CC(=S)N(CCn2cccn2)C1", "note": "(racemic) [Compound 37, rac-1-(2-(1H-Pyrazol-1-yl)ethyl)-4-(2,3-dichloro-6-hydroxyphenyl)pyrrolidine-2-thione]", "inhibition at 0.01 µM": "< 0"}
{"molecule": "Cn1cc(N2CC(c3c(O)ccc(Cl)c3Cl)CC2=S)cn1", "note": "(racemic) [Compound 40, 4-(2,3-dichloro-6-hydroxyphenyl)-1-(1-methyl-1H-pyrazol-4-yl)pyrrolidine-2-thione]", "inhibition at 0.01 µM": "50 to 75"}
{"molecule": "C=Cn1cc(N2CC(c3c(O)ccc(Cl)c3Cl)CC2=S)cn1", "note": "(racemic) [Compound 66, rac-4-(2,3-dichloro-6-hydroxyphenyl)-1-(1-vinyl-1H-pyrazol-4-yl)pyrrolidine-2-thione]", "inhibition at 0.01 µM": "25 to 50"}
{"molecule": "CS(=O)(=O)n1cc(N2CC(c3c(O)ccc(Cl)c3Cl)CC2=S)cn1", "note": "(racemic) [Compound 68, rac-4-(2,3-dichloro-6-hydroxyphenyl)-1-(1-(methylsulfonyl)-1H-pyrazol-4-yl)pyrrolidine-2-thione]", "inhibition at 0.01 µM": "25 to 50"}
{"molecule": "CS(=O)(=O)n1cc(N2CC(c3c(O)ccc(Cl)c3Cl)CC2=O)cn1", "note": "(racemic) [Compound 92, 4-(2,3-Dichloro-6-hydroxyphenyl)-1-(1-(methylsulfonyl)-1H-pyrazol-4-yl)pyrrolidin-2-one]", "inhibition at 0.01 µM": "50 to 75"}
{"molecule": "O=C1CC(c2c(O)ccc(Cl)c2Cl)CN1CCCNO", "note": "(racemic) [Compound 103, 4-(2,3-Dichloro-6-hydroxyphenyl)-1-(3-(hydroxyamino)propyl)pyrrolidin-2-one]", "inhibition at 0.01 µM": "≥ 75"}
{"molecule": "Oc1ccc(Cl)c(Cl)c1C1CC(=S)N([C@H]2C[C@H](O)C2)C1", "note": "(mixture of isomers) [Compound 124, rac-4-(2,3-dichloro-6-hydroxyphenyl)-1-((1r,3r)-3-hydroxycyclobutyl)pyrrolidine-2-thione]", "inhibition at 0.01 µM": "25 to 50"}
{"molecule": "OCC1(CN2CC(c3c(O)ccc(Cl)c3Cl)CC2=S)CC1", "note": "(racemic) [Compound 125, rac-4-(2,3-Dichloro-6-hydroxyphenyl)-1-((1-(hydroxymethyl)cyclopropyl)methyl)pyrrolidine-2-thione]", "inhibition at 0.01 µM": "0 to 5"}
{"molecule": "OC[C@H]1C[C@H](N2CC(c3c(O)ccc(Cl)c3Cl)CC2=S)C1", "note": "(mixture of isomers) [Compound 126, rac-4-(2,3-dichloro-6-hydroxyphenyl)-1-((1r,3r)-3-(hydroxymethyl)cyclobutyl)pyrrolidine-2-thione]", "inhibition at 0.01 µM": "0 to 5"}
{"molecule": "OC[C@H]1C[C@@H](N2CC(c3c(O)ccc(Cl)c3Cl)CC2=S)C1", "note": "(mixture of isomers) [Compound 127, rac-4-(2,3-dichloro-6-hydroxyphenyl)-1-((1s,3s)-3-(hydroxymethyl)cyclobutyl)pyrrolidine-2-thione]", "inhibition at 0.01 µM": "0 to 5"}
{"molecule": "Oc1ccc(Cl)c(Cl)c1C1CC(=S)N(C[C@H]2C[C@@H](O)C2)C1", "note": "(mixture of isomers) [Compound 128, rac-4-(2,3-dichloro-6-hydroxyphenyl)-1-(((1s,3s)-3-hydroxycyclobutyl)methyl)pyrrolidine-2-thione]", "inhibition at 0.01 µM": "0 to 5"}
{"molecule": "Oc1ccc(Cl)c(Cl)c1C1CC(=S)N(C[C@H]2C[C@H](O)C2)C1", "note": "(mixture of isomers) [Compound 129, rac-4-(2,3-dichloro-6-hydroxyphenyl)-1-(((1r,3r)-3-hydroxycyclobutyl)methyl)pyrrolidine-2-thione]", "inhibition at 0.01 µM": "0 to 5"}
{"molecule": "OCCCCN1CC(c2c(O)ccc(Cl)c2Cl)CC1=S", "note": "(racemic) [Compound 130, rac-4-(2,3-dichloro-6-hydroxyphenyl)-1-(4-hydroxybutyl)pyrrolidine-2-thione]", "inhibition at 0.01 µM": "25 to 50"}
{"molecule": "OC[C@@H](O)CN1CC(c2c(O)ccc(Cl)c2Cl)CC1=S", "note": "(mixture of isomers) [Compound 131, rac-4-(2,3-dichloro-6-hydroxyphenyl)-1-((S)-2,3-dihydroxypropyl)pyrrolidine-2-thione]", "inhibition at 0.01 µM": "50 to 75"}
{"molecule": "OCCCN1CC(c2c(O)ccc(F)c2Cl)CC1=S", "note": "(racemic) [Compound 148, rac-4-(2-chloro-3-fluoro-6-hydroxyphenyl)-1-(3-hydroxypropyl)pyrrolidine-2-thione]", "inhibition at 0.01 µM": "0 to 5"}
{"molecule": "OCCCN1CC(c2c(O)ccc(Cl)c2F)CC1=S", "note": "(racemic) [Compound 149, rac-4-(3-chloro-2-fluoro-6-hydroxyphenyl)-1-(3-hydroxypropyl)pyrrolidine-2-thione]", "inhibition at 0.01 µM": "< 0"}
{"molecule": "Oc1ccc(Cl)c(Cl)c1C1CC(=S)N(c2cnn(C3CC3)c2)C1", "note": "(racemic) [Compound 150, rac-1-(1-cyclopropyl-1H-pyrazol-4-yl)-4-(2,3-dichloro-6-hydroxyphenyl)pyrrolidine-2-thione]", "inhibition at 0.01 µM": "50 to 75"}
{"molecule": "Oc1ccc(Cl)c(Cl)c1C1CC(=S)N(c2cnn3c2CCC3)C1", "note": "(racemic) [Compound 159, rac-4-(2,3-dichloro-6-hydroxyphenyl)-1-(5,6-dihydro-4H-pyrrolo[1,2-b]pyrazol-3-yl)pyrrolidine-2-thione]", "inhibition at 0.01 µM": "25 to 50"}
{"molecule": "O=C1CC(c2c(O)ccc(Cl)c2Cl)CN1c1cnn2c1CCC2", "note": "(racemic) [Compound 160, rac-4-(2,3-dichloro-6-hydroxyphenyl)-1-(5,6-dihydro-4H-pyrrolo[1,2-b]pyrazol-3-yl)pyrrolidin-2-one]", "inhibition at 0.01 µM": "25 to 50"}
{"molecule": "Oc1ccc(Cl)c(Cl)c1C1CC(=S)N(c2cnn3c2OCC3)C1", "note": "(racemic) [Compound 161, rac-4-(2,3-dichloro-6-hydroxyphenyl)-1-(2,3-dihydropyrazolo[5,1-b]oxazol-7-yl)pyrrolidine-2-thione]", "inhibition at 0.01 µM": "50 to 75"}
{"molecule": "Oc1ccc(Cl)c(Cl)c1C1CC(=S)N(c2cnn3c2OCCC3)C1", "note": "(racemic) [Compound 162, rac-4-(2,3-dichloro-6-hydroxyphenyl)-1-(6,7-dihydro-5H-pyrazolo[5,1-b][1,3]oxazin-3-yl)pyrrolidine-2-thione]", "inhibition at 0.01 µM": "0 to 5"}
{"molecule": "Oc1ccc(Cl)c(Cl)c1C1CC(=S)N(c2cnn3c2COCC3)C1", "note": "(racemic) [Compound 163, rac-4-(2,3-dichloro-6-hydroxyphenyl)-1-(6,7-dihydro-4H-pyrazolo[5,1-c][1,4]oxazin-3-yl)pyrrolidine-2-thione]", "inhibition at 0.01 µM": "25 to 50"}
{"molecule": "Oc1ccc(Cl)c(Cl)c1C1CC(=S)N(c2cnn(C3COC3)c2)C1", "note": "(racemic) [Compound 164, rac-4-(2,3-dichloro-6-hydroxyphenyl)-1-(1-(oxetan-3-yl)-1H-pyrazol-4-yl)pyrrolidine-2-thione]", "inhibition at 0.01 µM": "50 to 75"}
{"molecular_target": "human Kv1.3 (hKv1.3) channels (Homo sapiens (Human), UniProt P22001)", "experiment": "Electrophysiological (whole-cell patch clamp) determination of inhibitory activity on Kv1.3 channels", "format": "cell-based", "details": "compound concentration 10 nM; HEK293T cells expressing hKv1.3; peak current inhibition", "procedure": "as §1, §2, §3, §4, §5, §6, §7, §8, §9, §10, §11"}
{"molecule": "4-(2,3-Dichloro-6-hydroxyphenyl)-1-(2,2-difluoro-3-hydroxypropyl)pyrrolidine-2-thione [Compound 121]", "10 nM inhibition rate (Kv1.3)": "A (A = inhibition ≥75%)"}
